3 compounds from US8557791B2, “Anti-tumor agent comprising cytidine derivative and carboplatin” (Taiho Pharmaceutical Co., Ltd., priority 2008, dated 2013) can be followed below.

Structures are written as SMILES.

The test system of experiment [1] is human head and neck cancer strain OCC-1. Description: Survival of nude rats with subcutaneously transplanted human head and neck cancer strain OCC-1. It counts as in vivo, rat. To be noted: carboplatin 40 mg/kg/day vs cisplatin 5 mg/kg/day as employed in the test. How it is done: Male nude rats (F344/N Jcl-rnu) were divided in terms of body weight into groups (14 rats in each group). To each rat, a fragment (about 2×2 mm) of human head and neck cancer strain OCC-1 was subcutaneously transplanted into the back (day 0). Drug administration was started on the day following transplant (day 1). ECyd was administered to a rat through the caudal vein at a dose of 0.3 mg/kg on days 1, 3, 5, 8, 10, and 12. Carboplatin was administered to a rat through the caudal vein at a dose of 30 mg/kg or 40 mg/kg on days 1 and 8. Cisplatin was administered to a rat through the caudal vein at a dose of 5 mg/kg on day 1. […] Rats of a control group were not subjected to drug treatment.
Thereafter, the survival (days) of each rat was checked, and the survival rate of each group was calculated by the following equation 1. FIGS. 1 to 3 are graphs showing survival rates; in each graph the horizontal axis represents days and the vertical axis represents survival rate. Survival rate (%)=(no. of surviving rats/no. of rats tested)×100 (Equation 1)

In experiment [2] the test system is human lung cancer strain LX-1. The experiment is described as follows: Antitumor effect in nude mice with subcutaneously transplanted human lung cancer strain LX-1. It counts as in vivo, mouse. To be noted: day 15, LX-1 s.c., i.v. days 1 and 8, ECyd 2 mg/kg, carboplatin 70 mg/kg; for RTV Mean ± SD (Relative Tumor Volume): male nude mice (BALB/cA jcl-nu); for IR (Inhibition Rate of tumor proliferation with respect to control): male nude mice. The method, then: A fragment (about 2×2 mm) of human lung cancer strain LX-1 was subcutaneously transplanted in the back of each of male nude mice (BALB/cA jcl-nu). When the average tumor volume (longer diameter (mm)×shorter diameter (mm)×shorter diameter (mm)×½) of these mice reached about 200 mm^3, the mice were divided into groups based on the tumor volume (8 mice in each group) (day 0).
Drug administration was started on the day following transplant (day 1). ECyd and carboplatin were administered to a mouse through the caudal vein at a dose of 2 mg/kg and 70 mg/kg, respectively, on days 1 and 8. Mice of a control group were not subjected to drug treatment.
On day 15, the ratio of tumor volume to that at the grouping (Relative Tumor Volume; RTV) was calculated. In addition, percent inhibition of tumor proliferation of a group with respect to the control group (Inhibition Rate (%); IR (%)) was calculated by equation 2.
From the tumor volume on day 15, enhancement in antitumor effect of the combined administration group with respect to the ECyd-only administration group and the carboplatin-only administration group was analyzed through the Student's t-test (both sides). The antitumor effect of the combined administration group with respect to either single administration group had significance value (p value) of less than 0.05, confirming that administration of ECyd and carboplatin in combination is statistically significant. IR (%)=[1−average tumor volume of treated group/average tumor volume of control group]×100 (Equation 2)

Consider `N.N.O=C([O-])C1(C(=O)[O-])CCC1.[Pt+2]` [carboplatin, cis-diammine(1,1-cyclobutanedicarboxylato)platinum(II)], for which the “antitumor effect of the platinum agents compared with each other” value in experiment [1] is on record as “almost the same antitumor effect”. Besides, in experiment [2], the “RTV Mean ± SD (Relative Tumor Volume)” value is recorded as 5.53 ± 1.75 and the “IR (Inhibition Rate of tumor proliferation with respect to control)” value turned out to be 42.8%.
Consider `C#C[C@@]1(O)[C@@H](CO)O[C@@H](n2ccc(N)nc2=O)[C@@H]1O` [ECyd, 1-(3-C-Ethynyl-β-D-ribopentofuranosyl)cytosine], for which, in experiment [2], the “RTV Mean ± SD (Relative Tumor Volume)” value is given as 5.43 ± 1.51 and the “IR (Inhibition Rate of tumor proliferation with respect to control)” value was found to be 43.8%.
Consider `N.N.[Cl][Pt][Cl]` [cisplatin], for which the “antitumor effect of the platinum agents compared with each other” value in experiment [1] was “almost the same antitumor effect”.
